Tests used:
[1] = Fluorescence ANTS/DPX vesicle leakage assay in POPE/POPG/TOCL (72:23:5); details: POPE/POPG/TOCL (72:23:5) 100 nm vesicles, P/L ≈ 1:30, mixtures 1:1, 10 mM HEPES pH 7.5, 155 mM NaCl, 30 °C, 600 s, % of Triton-X-100 leakage, mean of n = 3
Description: It could be argued that POPC/POPG (3:1) is not the most appropriate model system to describe a bacterial membrane, which rarely contains PC lipids. We therefore also performed leakage in another lipid system, POPE/POPG/TOCL (72:23:5), which is a good model of E. coli membranes[45],[69],[70]. […] For all of the other mutants discussed below, leakage was also studied both in POPC/POPG as well as POPE/POPG/TOCL, but since the results (synergy or no synergy) were in all cases the same, the latter data will not be presented in the text. All leakage data in POPE/POPG/TOCL (72:23:5) for charge mutants are summarized in Supplementary Table S4.
(§1) Leakage of small unilamellar vesicles induced by the peptides was studied using a standard fluorescence assay.
(§2) The appropriate lipids for each experiment were dissolved in CHCl3, together with 0.02 mol-% Rhodamine-PE (Rh-PE). […] This stock suspension was subjected to 10 freeze-thaw cycles and then frozen. Appropriate aliquots of the stock lipid suspension were unfrozen each day and extruded (41 times) through polycarbonate membranes with 100 nm pore size, and stored at room temperature overnight. The fluorophore and quencher outside the vesicles were removed by size exclusion chromatography using spin-columns (Pierce centrifuge column, 2 ml, Life Technologies GmbH, Darmstadt, Germany) filled with Sephacryl 100-HR (2 min, 1500 × g). For elution, a 10 mM HEPES buffer (pH 7.5) was used, containing 155 mM NaCl to balance the osmolarity. After extrusion and removal of the external dye and quencher, the lipid concentration usually decreases. Therefore, before each set of measurements a rhodamine spectrum was recorded to determine the actual concentration of lipids, which was referenced to a spectrum taken of vesicles made by sonification without any subsequent treatment.
(§3) Fluorescence experiments were performed on a FluoroMax2 spectrofluorimeter (HORIBA Jobin Yvon, Unterhaching, Germany) equipped with a thermostated sample holder and magnetic stirrer, using an excitation wavelength of 355 nm, an emission wavelength of 508 nm, and slit widths of 5 nm. The peptide solutions were placed in elution buffer in a 1 cm standard cuvette at 30 °C. 100 s after the start of the measurement lipid vesicles were added, and the intensity of the fluorescence at 508 nm was recorded. The leakage was measured during 600 s after addition of vesicles, and the measurement was terminated after addition of Triton-X-100 (0.25% v/v), which dissolved the vesicles, and yielded 100% leakage. To determine the background signal of the vesicles themselves, several blanks were recorded per measurement set. From the leakage values of the peptides alone and of the mixture of two peptides a synergy factor SF was calculated:3 SF=L(A+B)/[L(A)+L(B)] Here, L(A) is the leakage found with peptide A alone, L(B) is the leakage found with peptide B alone, and L(A + B) is the leakage found with the mixture of peptides A and B. In all cases the P/L was the same for both peptides, alone and in the mixture, so that in the mixture the total P/L was twice that of the individual peptide measurements. […] Measurements were repeated three times and average values and standard deviations calculated for the leakage and the synergy factors. An average SF ≥ 2 was taken to indicate synergy.

[2] = Fluorescence ANTS/DPX vesicle leakage assay in POPC/POPG (3:1); details: ANTS/DPX, POPC/POPG (3:1) 100 nm vesicles, P/L about 1:160 per peptide, mixtures 1:1, 10 mM HEPES pH 7.5, 155 mM NaCl, 30 °C, 600 s, % of Triton-X-100 leakage, fluorescence, mean of n = 3
Description: The synergy was also investigated by a fluorescence ANTS/DPX leakage assay[24],[27],[30]. As described in the Methods section, leakage from POPC/POPG (3:1) vesicles was measured for 10 minutes after the addition of vesicles to a peptide solution. Leakage is expressed as percentage of the full leakage, which was obtained after addition of detergent. A synergy factor was defined to describe the enhancement of leakage of the mixture compared to the sum of the extent of leakage for each component. […] In general a synergy factor above 2 indicated synergy. […] In the leakage assay, this pore formation can be studied under more controlled conditions. Here we use two lipid compositions for the vesicles, which are mimicking bacterial membranes.
as §1, §2
as §3, with “SF=L(A+B)/[L(A)+L(B)]” for “SF=L(A+B)/[L(A)+L(B)] Here, L(A) is the leakage found with peptide A alone, L(B) is the leakage found with peptide B alone, and L(A + B) is the leakage found with the mixture of peptides A and B. In all cases the P/L was the same for both peptides, alone and in the mixture, so that in the mixture the total P/L was twice that of the individual peptide measurements.”

[3] = Table S8 series (PGLa-to-MSI mutants)
[4] = Table S7 series (PGLa-to-MSI mutants)

| Substance | Leakage, mean value ([1]; Table S12 series (MSI-to-PGLa mutants)) | Leakage, mean value ([2]; Table S11 series (MSI-to-PGLa mutants)) | Leakage, mean value [1, 3] | Leakage, mean value [2, 4] |
| --- | --- | --- | --- | --- |
| KIAGKIAAIAGKIAKIAGKIA-NH2 [MtP-K8A, MSI-103 to PGLa single mutant K8A] | 1.8% | 1.7% |  |  |
| KIAGKIAKIAGKIAKIAGKIA-NH2 [MSI-103, designer-made AMP ([KIAGKIA]3-NH2) derived from PGLa, reference compound] |  |  | 5.6% | 2.0% |
| KIAGKIAKIAGKIAKVALKAL-NH2 [PtM-a1, PGLa to MSI-103 mutant, segment A replaced] |  |  | 18.6% | 4.7% |

From article PMC5640672, “Molecular mechanism of synergy between the antimicrobial peptides PGLa and magainin 2” (Scientific Reports, 2017)
